This is an account of results in patent US12435060B2, “Acylamino bridged heterocyclic compound, and composition and application thereof” (BEIJING SCITECH-MQ PHARMACEUTICALS LIMITED, priority 2019, dated 2025).

Molecules are shown by their SMILES. Bounds are passed on as bounds.

The experiment concerns HT29 cells. As to the kind of experiment: Inhibition of cell necrosis (CCK8 method), induced programmed necrosis of HT29 cells. It is filed as cell-based. Conditions: Homo sapiens, HT-29; rescue from necrosis induced by TNF-α 20 ng/mL, AT-406 1 μM, Z-VAD-FMK 20 μM; 16-20 hours; CCK-8, OD 450 nm. In a few lines:
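Rescue from programmed necrosis was scored by CCK-8 absorbance at 450 nm after 16-20 h of TNF-α (20 ng/mL), AT-406 (1 μM) and Z-VAD-FMK (20 μM) at 37 °C, 5% CO2. HT29 cells had received compound 30 min earlier across nine 4-fold dilutions (top 25000 nM final). IC50 came from % inhibition relative to uninduced and induced-only wells.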
For the molecule `Cc1ccc(OCCCC(C)(C)O)cc1-c1cc(NC(=O)c2nnc(CC3CCCCC3)[nH]2)ncn1` [Example 440, 5-(cyclohexylmethyl)-N-(6-(5-((4-hydroxy-4-methylpentyl)oxy)-2-methylphenyl)pyrimidin-4-yl)-4H-1,2,4-triazole-3-carboxamide], the IC50 (commonly the midpoint of a concentration-inhibition curve) is not above 100 nM.

Consider `Cc1ccc(OCC2CCOCC2)cc1-c1cc(NC(=O)c2nnc(Cc3ccccc3)[nH]2)ncn1` [Example 441, 5-benzyl-N-(6-(2-methyl-5-((tetrahydro-2H-pyran-4-yl)methoxy)phenyl)pyrimidin-4-yl)-4H-1,2,4-triazole-3-carboxamide], for which the IC50 is not above 100 nM. The same measure for `Cc1ccc(OCC2CCOCC2)cc1-c1cc(NC(=O)c2nnc(Cc3ccccc3F)[nH]2)ncn1` [Example 442, 5-(2-fluorobenzyl)-N-(6-(2-methyl-5-((tetrahydro-2H-pyran-4-yl)methoxy)phenyl)pyrimidin-4-yl)-4H-1,2,4-triazole-3-carboxamide]: not above 100 nM; for `Cc1ccc(OCC2CCOCC2)cc1-c1cc(NC(=O)c2nnc(CC3CCCC3)[nH]2)ncn1` [Example 443, 5-(cyclopentylmethyl)-N-(6-(2-methyl-5-((tetrahydro-2H-pyran-4-yl)methoxy)phenyl)pyrimidin-4-yl)-4H-1,2,4-triazole-3-carboxamide]: not above 100 nM; for `Cc1ccc(OCC2CCOCC2)cc1-c1cc(NC(=O)c2nnc(CC3CCCCC3)[nH]2)ncn1` [Example 444, 5-(cyclohexylmethyl)-N-(6-(2-methyl-5-((tetrahydro-2H-pyran-4-yl)methoxy)phenyl)pyrimidin-4-yl)-4H-1,2,4-triazole-3-carboxamide]: not above 100 nM. The same measure for `Cc1ccc(OCCC2CCOCC2)cc1-c1cc(NC(=O)c2nnc(Cc3ccccc3)[nH]2)ncn1` [Example 445, 5-benzyl-N-(6-(2-methyl-5-(2-(tetrahydro-2H-pyran-4-yl)ethoxy)phenyl)pyrimidin-4-yl)-4H-1,2,4-triazole-3-carboxamide]: not above 100 nM. The molecule `Cc1ccc(OCCC2CCOCC2)cc1-c1cc(NC(=O)c2nnc(Cc3ccccc3F)[nH]2)ncn1` [Example 446, 5-(2-fluorobenzyl)-N-(6-(2-methyl-5-(2-(tetrahydro-2H-pyran-4-yl)ethoxy)phenyl)pyrimidin-4-yl)-4H-1,2,4-triazole-3-carboxamide] registered an IC50 not above 100 nM.

For the molecule `Cc1ccc(OCCC2CCOCC2)cc1-c1cc(NC(=O)c2nnc(CC3CCCC3)[nH]2)ncn1` [Example 447, 5-(cyclopentylmethyl)-N-(6-(2-methyl-5-(2-(tetrahydro-2H-pyran-4-yl)ethoxy)phenyl)pyrimidin-4-yl)-4H-1,2,4-triazole-3-carboxamide], the IC50 was not above 100 nM. `Cc1ccc(OCCC2CCOCC2)cc1-c1cc(NC(=O)c2nnc(CC3CCCCC3)[nH]2)ncn1` [Example 448, 5-(cyclohexylmethyl)-N-(6-(2-methyl-5-(2-(tetrahydro-2H-pyran-4-yl)ethoxy)phenyl)pyrimidin-4-yl)-4H-1,2,4-triazole-3-carboxamide] showed an IC50 not above 100 nM. As for `Cc1ccc(OCCN2CCCCC2)cc1-c1cc(NC(=O)c2nnc(Cc3ccccc3F)[nH]2)ncn1` [Example 449, 5-(2-fluorobenzyl)-N-(6-(2-methyl-5-(2-(piperidin-1-yl)ethoxy)phenyl)pyrimidin-4-yl)-4H-1,2,4-triazole-3-carboxamide], the IC50 lay in the range of 100 to 1000 nM. The same measure for `CC(C)(O)CCCOc1ccc(C(F)(F)F)c(-c2cc(NC(=O)c3nnc(Cc4ccccc4)[nH]3)ncn2)c1` [Example 450, 5-benzyl-N-(6-(5-((4-hydroxy-4-methylpentyl)oxy)-2-(trifluoromethyl)phenyl)pyrimidin-4-yl)-4H-1,2,4-triazole-3-carboxamide]: not above 100 nM. The result for `CC(C)(O)CCCOc1ccc(C(F)(F)F)c(-c2cc(NC(=O)c3nnc(Cc4ccccc4F)[nH]3)ncn2)c1` [Example 451, 5-(2-fluorobenzyl)-N-(6-(5-((4-hydroxy-4-methylpentyl)oxy)-2-(trifluoromethyl)phenyl)pyrimidin-4-yl)-4H-1,2,4-triazole-3-carboxamide] reads not above 100 nM; that for `CC(C)(O)CCCOc1ccc(C(F)(F)F)c(-c2cc(NC(=O)c3nnc(CC4CCCC4)[nH]3)ncn2)c1` [Example 452, 5-(cyclopentylmethyl)-N-(6-(5-((4-hydroxy-4-methylpentyl)oxy)-2-(trifluoromethyl)phenyl)pyrimidin-4-yl)-4H-1,2,4-triazole-3-carboxamide], not above 100 nM. The result for `CC(C)(O)CCCOc1ccc(C(F)(F)F)c(-c2cc(NC(=O)c3nnc(CC4CCCCC4)[nH]3)ncn2)c1` [Example 453, 5-(cyclohexylmethyl)-N-(6-(5-((4-hydroxy-4-methylpentyl)oxy)-2-(trifluoromethyl)phenyl)pyrimidin-4-yl)-4H-1,2,4-triazole-3-carboxamide] reads not above 100 nM; that for `O=C(Nc1cc(-c2cc(OCC3CCOCC3)ccc2C(F)(F)F)ncn1)c1nnc(Cc2ccccc2)[nH]1` [Example 454, 5-benzyl-N-(6-(5-((tetrahydro-2H-pyran-4-yl)methoxy)-2-(trifluoromethyl)phenyl)pyrimidin-4-yl)-4H-1,2,4-triazole-3-carboxamide], not above 100 nM. `O=C(Nc1cc(-c2cc(OCC3CCOCC3)ccc2C(F)(F)F)ncn1)c1nnc(Cc2ccccc2F)[nH]1` [Example 455, 5-(2-fluorobenzyl)-N-(6-(5-((tetrahydro-2H-pyran-4-yl)methoxy)-2-(trifluoromethyl)phenyl)pyrimidin-4-yl)-4H-1,2,4-triazole-3-carboxamide]: the IC50 is not above 100 nM. The result for `O=C(Nc1cc(-c2cc(OCC3CCOCC3)ccc2C(F)(F)F)ncn1)c1nnc(CC2CCCC2)[nH]1` [Example 456, 5-(cyclopentylmethyl)-N-(6-(5-((tetrahydro-2H-pyran-4-yl)methoxy)-2-(trifluoromethyl)phenyl)pyrimidin-4-yl)-4H-1,2,4-triazole-3-carboxamide] reads not above 100 nM. Regarding `O=C(Nc1cc(-c2cc(OCC3CCOCC3)ccc2C(F)(F)F)ncn1)c1nnc(CC2CCCCC2)[nH]1` [Example 457, 5-(cyclohexylmethyl)-N-(6-(5-((tetrahydro-2H-pyran-4-yl)methoxy)-2-(trifluoromethyl)phenyl)pyrimidin-4-yl)-4H-1,2,4-triazole-3-carboxamide], the IC50 was not above 100 nM.

In the case of `O=C(Nc1cc(-c2cc(OCCC3CCOCC3)ccc2C(F)(F)F)ncn1)c1nnc(Cc2ccccc2)[nH]1` [Example 458, 5-benzyl-N-(6-(5-(2-(tetrahydro-2H-pyran-4-yl)ethoxy)-2-(trifluoromethyl)phenyl)pyrimidin-4-yl)-4H-1,2,4-triazole-3-carboxamide], the 50% inhibitory concentration (IC50) is not above 100 nM. The result for `O=C(Nc1cc(-c2cc(OCCC3CCOCC3)ccc2C(F)(F)F)ncn1)c1nnc(Cc2ccccc2F)[nH]1` [Example 459, 5-(2-fluorobenzyl)-N-(6-(5-(2-(tetrahydro-2H-pyran-4-yl)ethoxy)-2-(trifluoromethyl)phenyl)pyrimidin-4-yl)-4H-1,2,4-triazole-3-carboxamide] reads not above 100 nM; that for `O=C(Nc1cc(-c2cc(OCCC3CCOCC3)ccc2C(F)(F)F)ncn1)c1nnc(CC2CCCC2)[nH]1` [Example 460, 5-(cyclopentylmethyl)-N-(6-(5-(2-(tetrahydro-2H-pyran-4-yl)ethoxy)-2-(trifluoromethyl)phenyl)pyrimidin-4-yl)-4H-1,2,4-triazole-3-carboxamide], not above 100 nM.

For `O=C(Nc1cc(-c2cc(OCCC3CCOCC3)ccc2C(F)(F)F)ncn1)c1nnc(CC2CCCCC2)[nH]1` [Example 461, 5-(cyclohexylmethyl)-N-(6-(5-(2-(tetrahydro-2H-pyran-4-yl)ethoxy)-2-(trifluoromethyl)phenyl)pyrimidin-4-yl)-4H-1,2,4-triazole-3-carboxamide], the 50% inhibitory concentration (IC50) was not above 100 nM. The result for `CC(C)(O)CCCOc1ccc(Cl)c(-c2cc(NC(=O)c3nnc(Cc4ccccc4)[nH]3)ncn2)c1` [Example 462, 5-benzyl-N-(6-(2-chloro-5-((4-hydroxy-4-methylpentyl)oxy)phenyl)pyrimidin-4-yl)-4H-1,2,4-triazole-3-carboxamide] reads not above 100 nM; that for `CC(C)(O)CCCOc1ccc(Cl)c(-c2cc(NC(=O)c3nnc(Cc4ccccc4F)[nH]3)ncn2)c1` [Example 463, 5-(2-fluorobenzyl)-N-(6-(2-chloro-5-((4-hydroxy-4-methylpentyl)oxy)phenyl)pyrimidin-4-yl)-4H-1,2,4-triazole-3-carboxamide], not above 100 nM. `CC(C)(O)CCCOc1ccc(Cl)c(-c2cc(NC(=O)c3nnc(CC4CCCC4)[nH]3)ncn2)c1` [Example 464, 5-(cyclopentylmethyl)-N-(6-(2-chloro-5-((4-hydroxy-4-methylpentyl)oxy)phenyl)pyrimidin-4-yl)-4H-1,2,4-triazole-3-carboxamide] returned a 50% inhibitory concentration (IC50) not above 100 nM. The same measure for `CC(C)(O)CCCOc1ccc(Cl)c(-c2cc(NC(=O)c3nnc(CC4CCCCC4)[nH]3)ncn2)c1` [Example 465, 5-(cyclohexylmethyl)-N-(6-(2-chloro-5-((4-hydroxy-4-methylpentyl)oxy)phenyl)pyrimidin-4-yl)-4H-1,2,4-triazole-3-carboxamide]: not above 100 nM; for `O=C(Nc1cc(-c2cc(OCC3CCOCC3)ccc2Cl)ncn1)c1nnc(Cc2ccccc2)[nH]1` [Example 466, 5-benzyl-N-(6-(2-chloro-5-((tetrahydro-2H-pyran-4-yl)methoxy)phenyl)pyrimidin-4-yl)-4H-1,2,4-triazole-3-carboxamide]: not above 100 nM. The molecule `O=C(Nc1cc(-c2cc(OCC3CCOCC3)ccc2Cl)ncn1)c1nnc(Cc2ccccc2F)[nH]1` [Example 467, 5-(2-fluorobenzyl)-N-(6-(2-chloro-5-((tetrahydro-2H-pyran-4-yl)methoxy)phenyl)pyrimidin-4-yl)-4H-1,2,4-triazole-3-carboxamide] gave an IC50 not above 100 nM.
